According to patent US8735398B2 (Bristol-Myers Squibb Company, priority 2009, dated 2014):

The molecules below were run on HCV 1b genotype (assay: HCV replicon assay (HCV-neo replicon cells, wild-type)). Conditions: HCV 1b genotype replicon; class symbols; read-out: EC50 Range against HCV 1b.
Format: cell-based, Hepatitis C virus
Outline: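 Inhibition was tested in replicon-bearing cells, both wild-type HCV-neo and lines with NS5A resistance substitutions, using the O'Boyle et al. 2005 replicon method or luciferase-reporter formats.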
Work on `CC(C)(C)O[C@@H]1C[C@@H](C(=O)Nc2ccc(-c3cnc(-c4ccc(NC(=O)[C@@H]5C[C@@H](OC(C)(C)C)CN5C(=O)Cc5ccccn5)cc4)o3)cc2)N(C(=O)Cc2ccccn2)C1` [XY-75, (2S,4R,2′S,4′R)-N,N′-(1,3-oxazole-2,5-diyldi-4,1-phenylene)bis(4-tert-butoxy-1-(2-pyridinylacetyl)-2-pyrrolidinecarboxamide)] yielded an EC50 of 0.00457 to 0.099 µM.

Same assay, conditions: Hepatitis C virus, HCV 1b genotype replicon; class symbol; read-out: EC50 Range against HCV 1b
Work on `O=C(Nc1ccc(-c2cnc(-c3ccc(NC(=O)[C@@H]4CCCN4C(=O)c4ccncc4)cc3)o2)cc1)[C@@H]1CCCN1C(=O)c1ccncc1` [JG-10, (2S,2′S)-N,N′-(1,3-oxazole-2,5-diyldi-4,1-phenylene)bis(1-isonicotinoyl-2-pyrrolidinecarboxamide)] yielded an EC50 of 0.1 to 0.999 µM. `O=C(Nc1ccc(-c2ncc(-c3ccc(NC(=O)[C@@H]4CCCN4C(=O)C4CC4)cc3)o2)cc1)C1CCCN1C(=O)C1CC1` (stereo in doubt) [JG-7, (2S,2′S)-N,N′-(1,3-oxazole-2,5-diyldi-4,1-phenylene)bis(1-(cyclopropylcarbonyl)-2-pyrrolidinecarboxamide)] showed an EC50 of 0.1 to 0.999 µM. `CO[C@H]1C[C@@H](C(=O)Nc2ccc(-c3cnc(-c4ccc(NC(=O)[C@@H]5C[C@H](OC)CN5C(=O)[C@@H](c5ccccc5)N(C)C)cc4)o3)cc2)N(C(=O)[C@@H](c2ccccc2)N(C)C)C1` [OL-59, (2S,4S,2′S,4′S)-N,N′-(1,3-oxazole-2,5-diyldi-4,1-phenylene)bis(1-((2R)-2-(dimethylamino)-2-phenylacetyl)-4-methoxy-2-pyrrolidinecarboxamide)] showed an EC50 of under 0.00457 µM. For `COc1cccc2c1C=C(Cl)N(c1ccc(-c3ncc(-c4ccc(NC(=O)[C@@H]5C[C@@H]6C[C@@H]6N5C(=O)c5nc(Cl)cc6c(OC)cccc56)cc4)o3)cc1)C2C(=O)N1[C@H](C(N)=O)C[C@@H]2C[C@@H]21` (stereo partly drawn) [CB-4, (1S,3S,5S,1′S,3′S,5′S)-N,N′-(1,3-oxazole-2,5-diyldi-4,1-phenylene)bis(2-((3-chloro-5-methoxy-1-isoquinolinyl)carbonyl)-2-azabicyclo[3.1.0]hexane-3-carboxamide)], the EC50 was 0.1 to 0.999 µM. Molecule `O=C(Nc1ccc(-c2nnc(-c3ccc(NC(=O)C4CCCN4C(=O)Cc4ccccc4)cc3)o2)cc1)C1CCCN1C(=O)Cc1ccccc1` (stereo not drawn) [RK-3, N,N′-(1,3,4-oxadiazole-2,5-diyldi-4,1-phenylene)bis(1-(phenylacetyl)-2-pyrrolidinecarboxamide)] has an EC50 of 0.1 to 0.999 µM. `CN(C)[C@@H](C(=O)N1CCCN1C(=O)Nc1ccc(-c2cnc(-c3ccc(NC(=O)N4CCCN4C(=O)[C@@H](c4ccccc4)N(C)C)cc3)o2)cc1)c1ccccc1` [FY-9, N,N′-(1,3-oxazole-2,5-diyldi-4,1-phenylene)bis(2-((2R)-2-(dimethylamino)-2-phenylacetyl)-1-pyrazolidinecarboxamide)] was tested, and the EC50 was 0.00457 to 0.099 µM. `O=C(Nc1ccc(-c2nnc(-c3ccc(NC(=O)[C@@H]4CCCN4C(=O)[C@@H]4CCCO4)cc3)o2)cc1)[C@@H]1CCCN1C(=O)[C@@H]1CCCO1` [RK-14, (2S,2′S)-N,N′-(1,3,4-oxadiazole-2,5-diyldi-4,1-phenylene)bis(1-((2S)-tetrahydro-2-furanylcarbonyl)-2-pyrrolidinecarboxamide)] showed an EC50 of 0.1 to 0.999 µM. Work on `O=C(Nc1ccc(-c2nncn2-c2ccc(NC(=O)[C@@H]3C[C@@H](O)CN3C(=O)Cc3ccccc3)cc2)cc1)[C@@H]1C[C@@H](O)CN1C(=O)Cc1ccccc1` [OL-17, (2S,4R,2′S,4′R)-N,N′-(4H-1,2,4-triazole-3,4-diyldi-4,1-phenylene)bis[4-hydroxy-1-(phenylacetyl)-2-pyrrolidinecarboxamide]] yielded an EC50 of 1 to 10 µM. Molecule `C[C@@](O)(C(=O)N1CCC[C@H]1C(=O)Nc1ccc(-c2cc(-c3ccc(NC(=O)[C@@H]4CCCN4C(=O)[C@@](C)(O)c4ccccc4)cc3)[nH]n2)cc1)c1ccccc1` [JG-39, (2S,2′S)-N,N′-(1H-pyrazole-3,5-diyldi-4,1-phenylene)bis(1-((2S)-2-hydroxy-2-phenylpropanoyl)-2-pyrrolidinecarboxamide)] has an EC50 of under 0.00457 µM. Molecule `O=C(Nc1ccc(-c2cnc(-c3ccc(NC(=O)[C@@H]4CCCN4C(=O)c4onc5ccccc45)cc3)o2)cc1)[C@@H]1CCCN1C(=O)c1onc2ccccc12` [JG-30, (2S,2′S)-N,N′-(1,3-oxazole-2,5-diyldi-4,1-phenylene)bis(1-(2,1-benzisoxazol-3-ylcarbonyl)-2-pyrrolidinecarboxamide)] has an EC50 of 0.00457 to 0.099 µM. With `O=C(Nc1ccc(-c2cc(-c3ccc(NC(=O)[C@@H]4CCCN4C(=O)c4cc5ccccc5o4)cc3)[nH]n2)cc1)[C@@H]1CCCN1C(=O)c1cc2ccccc2o1` [JG-40, (2S,2′S)-N,N′-(1H-pyrazole-3,5-diyldi-4,1-phenylene)bis(1-(1-benzofuran-2-ylcarbonyl)-2-pyrrolidinecarboxamide)] the EC50 was 0.1 to 0.999 µM. For `O=C(Nc1ccc(-c2cnc(-c3ccc(NC(=O)[C@@H]4CCCN4C(=O)OCc4ccccc4)cc3)o2)cc1)[C@@H]1CCCN1C(=O)OCc1ccccc1` [JG-1, dibenzyl (2S,2′S)-2,2′-(1,3-oxazole-2,5-diylbis(4,1-phenylenecarbamoyl))di(1-pyrrolidinecarboxylate)], the EC50 was under 0.00457 µM. With `O=C(Nc1ccc(-c2nncn2-c2ccc(NC(=O)[C@@H]3CCCN3C(=O)Cc3ccccc3)cc2)cc1)[C@@H]1CCCN1C(=O)Cc1ccccc1` [OL-15, (2S,2′S)-N,N′-(4H-1,2,4-triazole-3,4-diyldi-4,1-phenylene)bis[1-(phenylacetyl)-2-pyrrolidinecarboxamide]] the EC50 was 1 to 10 µM.

Same assay, conditions: Hepatitis C virus, HCV 1b genotype replicon; class symbols; read-out: EC50 Range against HCV 1b
In the case of `Cc1cc(CC(=O)N2C[C@H](O)C[C@H]2C(=O)Nc2ccc(-c3cnc(-c4ccc(NC(=O)[C@@H]5C[C@@H](O)CN5C(=O)Cc5cc(C)no5)cc4)o3)cc2)on1` [XY-52, (2S,4R,2′S,4′R)-N,N′-(1,3-oxazole-2,5-diyldi-4,1-phenylene)bis(4-hydroxy-1-((3-methyl-5-isoxazolyl)acetyl)-2-pyrrolidinecarboxamide)], the EC50 is reported as 1 to 10 µM. `CC(=O)N1CCC(C(=O)N2CCC[C@H]2C(=O)Nc2ccc(-c3cnc(-c4ccc(NC(=O)[C@@H]5CCCN5C(=O)C5CCN(C(C)=O)CC5)cc4)o3)cc2)CC1` [XY-23, (2S,2′S)-N,N′-(1,3-oxazole-2,5-diyldi-4,1-phenylene)bis(1-((1-acetyl-4-piperidinyl)carbonyl)-2-pyrrolidinecarboxamide)] was tested, and the EC50 was 0.1 to 0.999 µM. `O=C(Nc1ccc(-c2cnc(-c3ccc(NC(=O)[C@@H]4CCCN4C(=O)CN4C(=O)OC(c5ccccc5)C4=O)cc3)o2)cc1)[C@@H]1CCCN1C(=O)CN1C(=O)OC(c2ccccc2)C1=O` (stereo partly drawn) [JR-22, (2S,2′S)-N,N′-(2,5-oxazolediyldi-4,1-phenylene)bis[1-[(2,4-dioxo-5-phenyl-3-oxazolidinyl)acetyl]-2-pyrrolidinecarboxamide]] was tested, and the EC50 was 1 to 10 µM. `O=C(Nc1ccc(-c2cnc(-c3ccc(NC(=O)[C@@H]4C[C@@H](O)CN4C(=O)c4cccs4)cc3)o2)cc1)[C@@H]1C[C@@H](O)CN1C(=O)c1cccs1` [XY-54, (2S,4R,2′S,4′R)-N,N′-(1,3-oxazole-2,5-diyldi-4,1-phenylene)bis(4-hydroxy-1-(2-thienylcarbonyl)-2-pyrrolidinecarboxamide)] showed an EC50 of 1 to 10 µM. With `C[C@H](NC(=O)c1cc(Cl)ccn1)C(=O)Nc1ccc(-c2nnc(-c3ccc(NC(=O)[C@H](C)NC(=O)c4cc(Cl)ccn4)cc3)o2)cc1` [RK-37, N,N′-(1,3,4-oxadiazole-2,5-diylbis(4,1-phenyleneimino((2S)-1-oxo-1,2-propanediyl)))bis(4-chloro-2-pyridinecarboxamide)] the EC50 was 1 to 10 µM.

Same assay, conditions: Hepatitis C virus, HCV 1b genotype replicon; read-out: EC50 1b
`O=C(Nc1ccc(-c2cnc(-c3ccc(NC(=O)[C@@H]4CCCN4C(=O)CN4C(=O)OC(c5ccccc5)C4=O)cc3)o2)cc1)[C@@H]1CCCN1C(=O)CN1C(=O)OC(c2ccccc2)C1=O` (stereo partly drawn) [JR-22, (2S,2′S)-N,N′-(2,5-oxazolediyldi-4,1-phenylene)bis[1-[(2,4-dioxo-5-phenyl-3-oxazolidinyl)acetyl]-2-pyrrolidinecarboxamide]] was tested, and the EC50 was 1.72 µM. With `C[C@@](O)(C(=O)N1CCC[C@H]1C(=O)Nc1ccc(-c2cc(-c3ccc(NC(=O)[C@@H]4CCCN4C(=O)[C@@](C)(O)c4ccccc4)cc3)[nH]n2)cc1)c1ccccc1` [JG-39, (2S,2′S)-N,N′-(1H-pyrazole-3,5-diyldi-4,1-phenylene)bis(1-((2S)-2-hydroxy-2-phenylpropanoyl)-2-pyrrolidinecarboxamide)] the EC50 was under 0.005 µM.
